Consider three compounds from the NIST ThermoML archive (doi:10.1021/je500332k).

The nature of series [1]: Boiling temperature at pressure P. Particulars: 101.33 kPa; Liquid; Distillation.
Series [2] can be described thus: refractive index (Na D-line) (dimensionless). Particulars: 298.2 K; 101.33 kPa; Liquid; Standard Abbe refractometry.
The conditions of series [3]: 298.2 K; 101.33 kPa; Liquid; Vibrating tube method.

± gives the expanded uncertainty stated by the source.

Take `CC(=O)O` [acetic acid]: the “Boiling temperature at pressure P” value in series [1] amounted to 118.1 ± 0.3 °C. For the same compound, in series [2], the refractive index (usually the speed of light in vacuum divided by its phase velocity in the sample) is on record as 1.3713 ± 0.0003. Further, the mass density (usually mass per unit of volume) in series [3] was 1049.42 ± 0.26 kg/m3.
The corresponding values for `COC(=O)OC` [dimethyl carbonate] are 90.08 ± 0.29 °C, 1.3685 ± 0.0004 and 1061.9 ± 0.38 kg/m3.
Turning to `O` [water], the “Boiling temperature at pressure P” value in series [1] is 100.1 ± 0.3 °C. Moreover, in series [2], the refractive index worked out at 1.3324 ± 0.0003.
